Data reported in patent US7994173B2, “2-piperazin-1-yl-3H-imidazo[4,5-b]pyridine derivatives” (Janssen Pharmaceutica N.V., priority 2007, dated 2011).
Counter-ions that a name gives are not always drawn.

What was measured:
[1] = test system: fundus of the stomach (gastric tone); assay: Gastric tone measured by an electronic barostat in conscious dogs; assay type: in vivo, dog (female beagle); details: for Maximum change in volume (Table C-2): I.D.
[2] = test system: fundus of the stomach (gastric tone); assay: as above; assay type: in vivo, dog (female beagle); details: for Maximum change in volume (mean): relaxation of the fundus, 1 hour after I.D. administration, 0.63 mg/kg
Experimental: Gastric tone cannot be measured by manometric methods. Therefore an electronic barostat was used. This allows the study of the physiological pattern and regulation of gastric tone in conscious dogs and the influence of test-compounds on this tone. The barostat consists of an air injection system which is connected by a double-lumen 14-French polyvinyl tube to an ultrathin flaccid polyethylene bag (maximal volume: ±700 ml). Variations in gastric tone were measured by recording changes in the volume of air within an intragastric bag, maintained at a constant pressure. The barostat maintains a constant pressure (preselected) within a flaccid air-filled bag introduced into the stomach, changing the volume of air within the bag by an electronic feedback system. Thus, the barostat measures gastric motor activity (contraction or relaxation) as changes in intragastric volume (decrease or increase resp.) at a constant intragastric pressure. The barostat consists of a strain gauge linked by an electronic relay to an air injection-aspiration system. Both the strain gauge and the injection system are connected by means of double-lumen polyvinyl tube to an ultrathin polyethylene bag. A dial in the barostat allows selection of the pressure level to be maintained within the intragastric bag. Female beagle dogs, weighing 7-17 kg, were trained to stand quietly in Pavlov frames. They were implanted with a gastric cannula under general anaesthesia and aseptic precautions. After a median laparotomy, an incision was made through the gastric wall in longitudinal direction between the greater and the lesser curve, 2 cm above the nerves of Latarjet. The cannula was secured to the gastric wall by means of a double purse string suture and brought out via a stub wound at the left quadrant of the hypochondrium. Dogs were allowed a recovery period of two weeks. At the beginning of the experiment, the cannula was opened in order to remove any gastric juice or food remnants. If necessary, the stomach was cleansed with 40 to 50 ml lukewarm water. The ultrathin bag of the barostat was positioned into the fundus of the stomach through the gastric cannula. In order to ensure easy unfolding of the intragastric bag during the experiment, a volume of 150-200 ml was injected into the bag by raising the pressure to maximally 14 mm Hg (about 1.87 kPa) very briefly. This procedure was repeated twice. After a stabilization period of 60 minutes at an intragastric pressure of 6 mmHg (about 0.81 kPa), the test compound was administered subcutaneously, or intraduodenally, at 2 mmHg (0.27 kPa). […] Table C-1 summarizes the mean maximal change in volume (in ml) on relaxation of the fundus, 1 hour after I.D. administration of the test compound (0.63 mg/kg).

Compound | melting point | Maximum change in volume (mean) [2] | other results
Cn1c(N2CCNCC2)nc2cccnc21 | 136 °C | – | –
Cn1c(N2CCN(Cc3cccnc3)CC2)nc2cccnc21 (as salt: HCl) (hydrate or solvate) [Co. No. 3] | 182 °C | – | –
Cn1c(C2CCCN(Cc3ccccc3)CC2)nc2cccnc21 (centres unmarked) [(72) of WO-01/46189, reference compound] | – | – | Maximum change in volume (Table C-2) ([1]; dose 0.16 mg/kg): 45 mL
CN(C)c1ccnc2c1nc(N1CCN(Cc3ccccc3)CC1)n2C [Co. No. 9] | 128 °C | – | –
Cn1c(N2CCN(Cc3ccc4c(c3)OCO4)CC2)nc2cccnc21 [Co. No. 10] | 114 °C | – | –
Cn1c(N2CCN(Cc3ccccc3)CC2)nc2cccnc21 [Co. No. 11] | 98 °C | – | –
CCCc1nc2c(cc1C)nc(N1CCN(Cc3ccccc3)CC1)n2C [compound 1] | – | 237 mL | –
Cn1c(N2CCN(Cc3cccnc3)CC2)nc2cccnc21 [compound 3] | – | 154 mL | –
CN(C)c1ccnc2c1nc(N1CCN(Cc3ccccc3)CC1)n2C [compound 9] | – | 185 mL | –
Cn1c(N2CCN(Cc3ccc4c(c3)OCO4)CC2)nc2cccnc21 [compound 10] | – | 251 mL | –
Cn1c(N2CCN(Cc3ccccc3)CC2)nc2cccnc21 [compound 11] | – | 220 mL | Maximum change in volume (Table C-2) ([1]; dose 0.0025 mg/kg): 83 mL; Maximum change in volume (Table C-2) ([1]; dose 0.01 mg/kg): 157 mL; Maximum change in volume (Table C-2) ([1]; dose 0.04 mg/kg): 146 mL; Maximum change in volume (Table C-2) ([1]; dose 0.16 mg/kg): 180 mL; Maximum change in volume (Table C-2) ([2]; I.D., dose 0.63 mg/kg): 220 mL
Cn1c(N2CCNCC2)nc2cccnc21 [compound 14] | – | – | Maximum change in volume (mean) ([1]; relaxation of the fundus, 1 hour after I.D. administration, administered at 0.16 mg/kg (footnote *)): 154.6 mL
